Data published in paper PMC9629855, “Development of ASIC1a ligand-gated ion channel drug screening assays across multiple automated patch clamp platforms” (Frontiers in Molecular Neuroscience, 2022).
“And” between values parts separate entries of the source, which are not always exact repeats. Identical values can stand only once. Like-named read-outs stand apart in the source and are kept apart here. Bridges are numbered along the chain shown (N, C = ends). Where no end group is shown, it is not given here.

Tests used:
[1] = tested on: "ASIC1-like" pH-activated currents in rat dorsal root ganglion neurons; design: method as in Dubé et al., 2005; conditions: ref Dubé et al., 2005, read-out: Literature IC50; cited from earlier work
hASIC1a [2] = target: T1, hASIC1a (Homo sapiens, UniProt P78348); assay: cell-based; design: host or cells: CHO (tetracycline-inducible); conditions: pH 6.5 agonist, QPatch 48 single hole; for IC50: 2 min pre-incubation
T1 sequence (P78348 1-528): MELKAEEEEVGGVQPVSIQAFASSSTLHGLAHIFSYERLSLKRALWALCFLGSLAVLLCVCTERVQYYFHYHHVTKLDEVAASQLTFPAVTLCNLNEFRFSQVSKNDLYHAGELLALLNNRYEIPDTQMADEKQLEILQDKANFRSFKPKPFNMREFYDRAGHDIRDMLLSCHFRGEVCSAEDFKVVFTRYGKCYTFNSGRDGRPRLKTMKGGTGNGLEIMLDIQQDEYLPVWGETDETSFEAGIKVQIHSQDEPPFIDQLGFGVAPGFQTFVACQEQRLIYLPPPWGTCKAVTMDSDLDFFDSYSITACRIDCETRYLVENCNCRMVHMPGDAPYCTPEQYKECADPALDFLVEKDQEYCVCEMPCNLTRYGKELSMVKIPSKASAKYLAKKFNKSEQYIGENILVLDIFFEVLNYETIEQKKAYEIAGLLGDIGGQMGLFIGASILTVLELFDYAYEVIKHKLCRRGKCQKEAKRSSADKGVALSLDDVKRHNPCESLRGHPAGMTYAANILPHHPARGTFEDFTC
Protocol: (§1) CHO hASIC1a cells were cultured according to vendor instructions (B-SYS GmbH) and HEK cells using standard in-house methods. Both cell lines were harvested using optimized protocols and re-suspended in serum-free media (Gibco CHO-S-SFM from Thermo Fisher Scientific for CHO cells, and Ex-Cell 302 from Merck Sigma-Aldrich for HEK cells) to obtain a suspension of cells with smooth membranes and little debris, before transfer to the automated cell hotel consisting of a 60 ml plastic container (Sophion SB2050) and a magnetic stir bar to prevent cell clumping. An aliquot of cells is then aspirated into a 1 ml microcentrifuge tube and spun down (typically 150 g for 2.5 min) and the supernatant discarded before a user-defined volume of external solution is added by the robot and the cells re-suspended to achieve the desired final cell suspension density before application to primed QPlates. Cell capture, sealing and whole-cell access was achieved using optimized QPatch protocols before currents were recorded using a holding potential of −60 mV. […] Cells were washed three times with external pH 7.3 solution (5 μl) between applications of activating acidic solution to establish a stable ASIC1a current baseline. […] Each concentration of reference compound was applied to each cell before (i.e., during each pH 7.3 application period) and during each pH stimulus (IC50 mode). Thus, each concentration of test compound was pre-incubated with cells for at least 2 min before, and then during each acidic solution challenge, before wash-off in a neutral pH 7.3 solution that contained the next concentration of the same compound. Cells were allowed at least 2 min between applications of acidic solution to enable ASIC1a receptors to recover from desensitization.
(§2) Concentration-response xC50 curves from Patchliner and QPatch 48 experiments were calculated by plotting %inhibition (antagonists) or activation (pH) data against concentration in Prism software (GraphPad), using the variable sigmoidal dose-response function to fit the Hill equation with theoretical minimum block of 0% and maximum block of 100% and a free constant for Hill slope.
In addition, this protocol is designed to avoid tachyphylaxis associated with a more acidic pH stimulus, and it allows the development of a ligand-gated ASIC1a channel assay that can distinguish between agonists, partial agonists and antagonists. […] Compounds were tested using the cumulative concentration-response assay format shown in Figure 5A, which includes a 2 min pre-incubation period for each concentration to allow test samples to reach and equilibrate with their binding site(s) in the pore or large extracellular binding domain of ASIC1 receptor trimers. Agonist effects can also be detected during this period as membrane current data is recorded after every liquid addition. […] Mean inhibition data for each test sample is plotted against Log[compound] and fit with a concentration-response function.

ASIC1a = tested on: ASIC1a; design: method as in Nagaeva et al., 2016; conditions: ref Nagaeva et al., 2016; cited from earlier work
[3] = tested on: endogenous proton-activated currents in HEK cells; assay: cells; type: cell-based, human; conditions: HEK cells
Protocol: as §1
as §2, with “slope. Inward current amplitudes were compared to the response to a control pH application (typically pH 6.5) prior to antagonist application or excitation by solutions of different pH to enable calculation of %inhibition or %activation for each cell.” for “slope.”
To quickly confirm a previous publication that HEK cells express endogenous ASIC1a receptor channels and assess the suitability of this cell system for drug discovery screening on APC platforms, we utilized the medium throughput QPatch 48 device. The QPatch uses 48 well microfluidic planar borosilicate chips and coated titanium pipette tips to make whole-cell recordings and sequentially apply small liquid volumes to enable rapid activation followed by slower deactivation (wash-off) of ligand-gated ionotropic responses. HEK cells were voltage-clamped at −60 mV and maintained in external solution at pH 7.4 to avoid steady-state desensitization of ASIC1 receptor channels. Cells were stimulated by external solutions with pH values ranging between 7.0 and 5.5 that evoked rapidly activating inward currents, followed by wash-off in pH 7.4 solution.

hASIC1a [4] = target: T1, hASIC1a; design: host or cells: CHO; conditions: ref Diochot et al., 2012, cited from earlier work
rat ASIC1a = tested on: rat ASIC1a; design: method as in Diochot et al., 2012; conditions: ref Diochot et al., 2012, read-out: IC50 potency for the rat ortholog; cited from earlier work
hASIC1a [5] = target: T1, hASIC1a; assay: QPatch 48 APC, CHO hASIC1a, multi-hole (10 hole X-plate) recordings; type: cell-based; design: host or cells: CHO (tetracycline-inducible)
Protocol: as §1, §2
Before employing a more efficient multi-hole assay it is important to establish that this variant of the APC whole-cell recording format returns the same biophysics and pharmacology as single cell recordings. To this end we ran some of the reference compounds detailed above in 10 hole “X-plate” mode on the QPatch 48.

TRPV1 receptor channels = tested on: TRPV1 receptor channels; design: method as in Diochot et al., 2012; conditions: ref Diochot et al., 2012; cited from earlier work

For `CC(C)C1c2cc(C3CC3c3ccc4cc(C(=N)N)ccc4c3)ccc2CCN1C` (centres unmarked) [A-317567], the IC50 [1] is listed as 2000 nM, the IC50 (hASIC1a [2]; read-out: IC50 potency) is listed as 660 nM and the Hill slope (hASIC1a [2]) is listed as 0.9.

`NC12CC3CC(CC(C3)C1)C2` [Amantadine] showed an IC50 (hASIC1a [2]; read-out: IC50 potency) of 510000 nM and a Hill slope (hASIC1a [2]) of 0.9.

In the case of `CC12CC3CC(C)(C1)CC(N)(C3)C2` [Memantine], the IC50 (hASIC1a [2]; read-out: IC50 potency) is given as 315000 nM, the Hill slope (hASIC1a [2]) is given as 1.1 and the “Literature inhibition at 500 μM” value (ASIC1a) is given as 31% at 500 μM.

In the case of `N.N.N.N.N.N.N.N.N.N.N.N.N.N.[Cl-].[Cl-].[Cl-].[Cl-].[Cl-].[Cl-].[O-2].[O-2].[Ru+3].[Ru+3].[Ru+4]` [Ruthenium Red], the “inhibition of amplitude of currents activated by pH 6.5” value ([3]; 1 μM Ruthenium Red) is reported as 12 ± 7%.

With “LKCYQHGKVVTCHRDMKFCYHNIGMPFRNLKLILQGCSSSCSETENNKCCSTDRCNK (disulfide 3-19, 12-37, 41-49, 50-55) [Mambalgin-3]” the IC50 (hASIC1a [2]; IC50 potency) was 160 nM, the Hill slope (hASIC1a [2]) was 1.8 and the “block of endogenous proton-activated currents” value ([3]; 300 nM) was about 75%. The “potentiation of endogenous pH-evoked responses” value [3] was “no evidence for such modulation”, the IC50 ([3]; pH 6.5 activation, QPatch 48, read-out: cumulative IC50) was 119 nM and the IC50 (hASIC1a [4]; read-out: Literature IC50) was 127 nM. The IC50 (rat ASIC1a) was 17 to 55 nM, the IC50 (hASIC1a [5]) was 160 nM and the “Hill slope (Hn)” value (hASIC1a [5]; multi-hole recordings, QPatch 48) was 1.80. The “inhibition of TRPV1 receptor channels” value (TRPV1 receptor channels) was “does not inhibit”.

For “Mambalgin-1 (LKCYQHGKVVTCHRDMKFCYHNTGMPFRNLKLILQGCSSSCSETENNKCCSTDRCNK; ends and bridges not checked; cysteine pairing not given here; UniProt P0DKR6 22-78, looked up) [snake toxin differing from Mambalgin-3 at one non-critical amino acid residue]”, the IC50 (hASIC1a [4]; Sun et al., 2018, read-out: quoted values against human ASIC1a channels) is listed as 127 nM and 197 nM.
